Measurements reported in PMC12118597 (Science Advances, 2025).
Read-outs that look alike come from different tables or passages of the source.

Experiments:
[1] = target: T1, SARS-CoV-2 NSP3 macrodomain (Mac1) (Severe acute respiratory syndrome coronavirus 2, UniProt P0DTD1); experiment: biochemical; format: binding
[2] = target: T1, SARS-CoV-2 NSP3 macrodomain (Mac1); format: binding; conditions: for binding by crystal soaking: P43 crystal form, repeated attempts, result in words
[3] = compound at 200 μM, mean of three to four technical replicates, read-out: % competition at 200 μM (preliminary HTRF screen)
[4] = ligand modeling, Mac1 crystal soak
[5] = read-out: IC50 (confirmatory HTRF dose-response screen)
[6] = stereoisomer(s) modeled as bound, residues 201/202/203
[7] = single dose concentration 200 μM (TS-FrankenROCS series)
[8] = SARS CoV-2 macrodomain HTRF assay
[9] = SARS CoV-2 macrodomain HTRF assay, single dose concentration 200 μM, read-out: Average % competition
[10] = SARS CoV-2 macrodomain HTRF assay, dose-response, read-out: IC50
[11] = SARS CoV-2 macrodomain HTRF assay, single dose concentration 200 μM

Row | Structure (SMILES) | Number of isomers bound [2, 4] | Ki [1, 8] [µM] | Ligand efficiency (binding enery per heavy atom) [1, 8] | IC50 [1, 10] [µM] | also measured
1 | Nc1ncnc2c1ncn2[C@@H]1O[C@H](COP(=O)(O)OP(=O)(O)OC[C@H]2O[C@@H](O)[C@H](O)[C@@H]2O)[C@@H](O)[C@H]1O.[Na].[Na] [ADP-ribose, reference compound] | – | – | – | – | Hill slope ([1]; HTRF binding curve, SARS-CoV-2 Mac1): 1.1; X-ray crystal structure ([2]; TRUE = crystal structure with ligand obtained): TRUE
2 | O=C(O)C1CCCN1S(=O)(=O)c1cccc2nsnc12 (stereo not shown) [AVI-2] | 1 | – | – | – | inhibition at 200 µM [1, 3]: 23%
3 | c1ccc(-n2nnnc2CSc2nnc(NC3CC3)s2)cc1 [AVI-286] | – | – | – | – | Number of isomers bound [2]: 1
4 | COC1CCCN(S(=O)(=O)c2cc(Cl)cnc2N)C1 (stereo not shown) [AVI-290] | – | – | – | – | binding by crystal soaking [2]: failed to observe binding
5 | Nc1ncc(Cl)cc1S(=O)(=O)N1CCCC(O)C1 (stereo not shown) [AVI-295] | – | – | – | – | binding by crystal soaking [2]: failed to observe binding
6 | Nc1nnc(SCCn2c(=O)oc3ccccc32)s1 [AVI-296] | – | – | – | – | Number of isomers bound [2]: 1
7 | CC1CC(C(=O)O)CCN1C(=O)c1ccc2c(c1)OCC(=O)N2 (stereo not shown) [AVI-303] | 1 | – | – | – | inhibition at 200 µM [1, 3]: < 10%; inhibition at 200 µM ([1]; single dose concentration 200 μM (TS-FrankenROCS series), read-out: Average % competition): < 10%
8 | OCC(Cc1ccccc1)Nc1ncnc2[nH]ccc12 (stereo not shown) [AVI-313] | 2 | – | – | – | Ligand efficiency (binding enery per heavy atom) [1]: 0.27; Ki ([1]; dose-response): 120 µM; IC50 [1, 5]: 130 µM; Isomers modeled [2, 6]: S,R
9 | O=C(Nc1ccsc1C(=O)O)c1ccc2c(c1)OCO2 [AVI-316] | 1 | – | – | – | –
10 | Cc1sc2ncnc(Sc3ccccc3C(=O)O)c2c1C [AVI-317] | 1 | – | – | – | –
11 | Cc1c(C)n(Cc2ccccc2)c2ncnc(N)c12 [AVI-321] | 1 | – | – | – | inhibition at 200 µM [1, 3]: 19%
12 | CC(CNC(=O)c1ccc2c(c1)CCC(=O)N2)C(=O)O (stereo not shown) [AVI-328] | 2 | – | – | – | Ligand efficiency (binding enery per heavy atom) [1]: 0.25; Ki ([1]; dose-response): 210 µM; IC50 [1, 5]: 220 µM; Isomers modeled [2, 6]: R,S
13 | Cc1cc2c(=O)n(CCN3C(=O)c4ccccc4S3(=O)=O)nnc2s1 [AVI-341] | 1 | – | – | – | inhibition at 200 µM [1, 3]: 11%; Average % competition [1, 7]: 11%
14 | CC1CCN(C(=O)c2ccc3c(c2)nc(CO)n3C)CC1C(=O)O (stereo not shown) [AVI-348] | 1 | – | – | – | inhibition at 200 µM [1, 3]: < 10%; Average % competition [1, 7]: <10%
15 | CC(C)(O)[C@H]1CCCN1c1ncnc2[nH]ccc12 [AVI-607, 2-[(2R)-1-{7H-pyrrolo[2,3-d]pyrimidin-4-yl}pyrrolidin-2-yl]propan-2-ol] | 1 | 4.7 | 0.41 | – | Ligand efficiency ([1]; Binding energy per heavy atom): 0.41; IC50 [1, 5]: 5.1 µM
16 | OC[C@@H]1C[C@H](F)CN1c1ncnc2[nH]ccc12 [AVI-609] | 1 | – | – | – | inhibition at 200 µM [1, 9]: 52%; inhibition at 200 µM [1, 3]: 52%
17 | OC[C@@H]1C[C@H](O)CN1c1ncnc2[nH]ccc12 [AVI-610] | 1 | 150 | 0.31 | 160 | –
18 | NC(=O)C1(O)CCN(c2ncnc3[nH]ccc23)C1 (stereo not shown) [AVI-611] | 1 | – | – | – | Average % competition [1, 11]: 30%; inhibition at 200 µM [1, 3]: 30%; Isomers modeled [2, 6]: S,S
19 | CCC1(O)CCN(c2ncnc3[nH]ccc23)C1 (stereo not shown) [AVI-612] | 1 | – | – | – | Average % competition [1, 11]: 22%; inhibition at 200 µM [1, 3]: 22%
20 | O[C@@H]1CN(c2ncnc3[nH]ccc23)C[C@H]1F [AVI-616] | 1 | – | – | – | Average % competition [1, 11]: 15%; inhibition at 200 µM [1, 3]: 15%
21 | O[C@H]1COC[C@@H]1Nc1ncnc2[nH]ccc12 [AVI-1444, (3R,4S)-4-((7H-pyrrolo[2,3-d]pyrimidin-4-yl)amino)tetrahydrofuran-3-ol] | 1 | – | – | – | –
22 | Cc1c[nH]c2ncnc(NCC3(O)CCSCC3)c12 [AVI-4195, 4-(((5-methyl-7H-pyrrolo[2,3-d]pyrimidin-4-yl)amino)methyl)tetrahydro-2H-thiopyran-4-ol] | – | 48 | 0.31 | 52 | –
23 | CC1CCCC(O)(CNc2ncnc3[nH]ccc23)C1 (stereo not shown) [AVI-4307] | – | 37 | 0.32 | 40 | –
24 | OC1(CNc2ncnc3[nH]ccc23)CCC(F)(F)CC1 [AVI-4308] | – | 130 | 0.27 | 140 | –

Row | Structure (SMILES) | Number of isomers bound [2, 4] | Ki [1, 8] [µM] | Ligand efficiency (binding enery per heavy atom) [1, 8] | IC50 [1, 10] [µM] | also measured
25 | OC1(CNc2ncnc3[nH]ccc23)CCCC(C(F)(F)F)C1 (stereo not shown) [AVI-4309] | – | 140 | 0.24 | 150 | –
26 | CC1(C)CCC(O)(CNc2ncnc3[nH]ccc23)CC1 [AVI-4310] | – | 71 | 0.29 | 76 | –
27 | OC1(CNc2ncnc3[nH]ccc23)CCCOC1 (stereo not shown) [AVI-4311] | – | 160 | 0.29 | 170 | –
28 | OC1(CNc2ncnc3[nH]ccc23)COC2CC1C2 (stereo not shown) [AVI-4313] | – | 120 | 0.29 | 130 | –
29 | OC1(CNc2ncnc3[nH]ccc23)CCOCC1 [AVI-4314] | – | 210 | 0.28 | 230 | –
30 | OC1(CNc2ncnc3[nH]ccc23)CCC2(CC1)OCCO2 [AVI-4315] | – | 200 | 0.23 | 210 | –
31 | O=S1(=O)CCCC(O)(CNc2ncnc3[nH]ccc23)C1 (stereo not shown) [AVI-4317] | – | 100 | 0.28 | – | IC50 [1, 5]: 110 µM
32 | CN(CC1(O)CCOCC1)c1ncnc2[nH]ccc12 [AVI-4318] | – | 66 | 0.30 | 71 | –
33 | OC1(CNc2ncnc3[nH]ccc23)CCSCC1 [AVI-4319] | – | 160 | 0.29 | 170 | –
34 | OC1(CNc2ncnc3[nH]ccc23)CC2CCC1CC2 (stereo not shown) [AVI-4320] | – | 77 | 0.28 | 83 | –
35 | CC(Nc1ncnc2[nH]ccc12)C1(O)CCCCC1 (stereo not shown) [AVI-4321] | – | 45 | 0.32 | 48 | –
36 | OC1(CNc2ncnc3[nH]ccc23)CCCSC1 (stereo not shown) [AVI-4322] | – | 49 | 0.33 | 53 | –
37 | Cc1c[nH]c2ncnc(NCC3(O)CCC(O)CC3)c12 (stereo not shown) [AVI-4329] | – | – | – | – | Isomers modeled ([2]; stereoisomer(s)/conformations of the soaked ligand modeled in the Mac1 crystal structure): rr,rr
38 | Cc1c[nH]c2ncnc(NCC3(O)CCC(C)(C)CC3)c12 [AVI-4330] | – | 610 | 0.21 | 650 | –
39 | CC(C)C1CCCN1c1ncnc2[nH]ccc12 (stereo not shown) [AVI-5216] | – | – | – | – | inhibition at 200 µM [1, 9]: 35%; inhibition at 200 µM [1, 3]: 35%
40 | CC(C)(CO)Nc1ncnc2[nH]ccc12 [AVI-5266] | – | 30 | – | 32 | –
41 | OCC1(Nc2ncnc3[nH]ccc23)COC1 [AVI-5649] | – | – | – | – | Average % competition ([1]; Single dose, concentration 200 μM): <10%; inhibition at 200 µM [1, 3]: < 10%
42 | OCC1C=CCCN1c1ncnc2[nH]ccc12 (stereo not shown) [AVI-5998] | – | 150 | 0.31 | 160 | –
43 | OCC1CC=CCN1c1ncnc2[nH]ccc12 (stereo not shown) [AVI-6002] | – | 48 | 0.35 | 52 | –
44 | Nc1cccc(CSC2CCc3ccccc32)n1 (stereo not shown) [AVI-6015] | – | – | – | – | IC50 ([1]; read-out: IC50): > 1000 µM
45 | CC(O)C1CCN(c2cc(N3CCC(c4ccccc4)CC3C)ncn2)C1 (stereo not shown) [AVI-6016] | – | – | – | – | IC50 ([1]; read-out: IC50): > 1000 µM
46 | Nc1ncnc(N2CCCCC3(CCC3)C2)c1Cl [AVI-6017] | – | – | – | – | IC50 ([1]; read-out: IC50): > 1000 µM
47 | OC1(CNc2ncnc3[nH]ccc23)CCCCC1 [AVI-6217] | – | 39 | 0.34 | 42 | –
